Results reported in US20080287398A1, “COLD MENTHOL RECEPTOR-1 ANTAGONISTS” (priority 2007, published 2008).
Like-named read-outs stand apart in the source and are kept apart here.

Columns and labels:
Male Sprague Dawley rats = experiment: Inhibition of icilin-induced wet-dog shakes in rats; format: in vivo; details: rat, 15′ pre icilin
rats = experiment: Reversal of icilin-induced behaviors (wet-dog shakes) in rats; format: in vivo; details: rat, 1 h post-icilin
Experimental: In this paradigm, icilin-induced shaking was counted for 10 minutes followed by administration of a compound of Formula (I). The diminution of shaking behavior is represented as a percent inhibition relative to icilin-induced shakes in the absence of test compound administration, as described by the following formula: % Inhibition=[1−(WDS count following test compound dose/WDS count prior to test compound dose)]×100.

Sprague-Dawley rats = experiment: CFA-induced paw radiant heat hypersensitivity; format: in vivo, rat; details: po, rat; for inhibition in vivo at 30 mg/kg: 30 mg/kg p.o., read-out: % Reversal
Experimental: Intraplantar injection of Complete Freund's Adjuvant (CFA) in rodents results in a long-lasting inflammatory reaction, characterized by a pronounced hypersensitivity to both thermal and mechanical stimuli. This hypersensitivity peaks between 24-72 hours following injection and can last for several weeks. […] This paradigm also may be conducted with a multiple dosing or a prophylactic dosing regime designed to alter the course of hyperalgesia development. This test predicts the analgesic, anti-allodynic and antihyperalgesic effect of numerous effective clinical agents, including NSAIDS such as acetaminophen, aspirin and ibuprofen, and opioids such as morphine.
Each rat was placed in a test chamber on a warm glass surface and allowed to acclimate for approximately 10 minutes. A radiant thermal stimulus (beam of light) was then focused through the glass onto the plantar surface of each hind paw in turn. The thermal stimulus was automatically shut off by a photoelectric relay when the paw was moved or when the cut-off time was reached (20 seconds for radiant heat at ˜5 Amps). An initial (baseline) response latency to the thermal stimulus was recorded for each animal prior to the injection of CFA. Twenty-four hours following intraplantar CFA injection, the response latency of the animal to the thermal stimulus was then re-evaluated and compared to the animal's baseline response time. […] Immediately following the post-CFA latency assessment, test compound or vehicle (usually Solutol, hydroxypropyl methylcellulose, hydroxypropyl beta-cyclodextrin or PEG-400) was administered i.p. or p.o. to rats. […] The percent reversal (% R) of hypersenstivitiy was calculated according to the following formula:
% Reversal=(Treatment Response-CFA Response)/(Baseline Response-CFA Response)×100.

canine TRPM8 = target: T1, canine TRPM8 (Canis lupus familiaris, UniProt Q1A7N1); experiment: TRPM8 patch clamp assay (whole-cell, HEK293 cells); format: cell-based
T1 construct: expressed in transfected cells
T1 sequence (Q1A7N1 1-1104): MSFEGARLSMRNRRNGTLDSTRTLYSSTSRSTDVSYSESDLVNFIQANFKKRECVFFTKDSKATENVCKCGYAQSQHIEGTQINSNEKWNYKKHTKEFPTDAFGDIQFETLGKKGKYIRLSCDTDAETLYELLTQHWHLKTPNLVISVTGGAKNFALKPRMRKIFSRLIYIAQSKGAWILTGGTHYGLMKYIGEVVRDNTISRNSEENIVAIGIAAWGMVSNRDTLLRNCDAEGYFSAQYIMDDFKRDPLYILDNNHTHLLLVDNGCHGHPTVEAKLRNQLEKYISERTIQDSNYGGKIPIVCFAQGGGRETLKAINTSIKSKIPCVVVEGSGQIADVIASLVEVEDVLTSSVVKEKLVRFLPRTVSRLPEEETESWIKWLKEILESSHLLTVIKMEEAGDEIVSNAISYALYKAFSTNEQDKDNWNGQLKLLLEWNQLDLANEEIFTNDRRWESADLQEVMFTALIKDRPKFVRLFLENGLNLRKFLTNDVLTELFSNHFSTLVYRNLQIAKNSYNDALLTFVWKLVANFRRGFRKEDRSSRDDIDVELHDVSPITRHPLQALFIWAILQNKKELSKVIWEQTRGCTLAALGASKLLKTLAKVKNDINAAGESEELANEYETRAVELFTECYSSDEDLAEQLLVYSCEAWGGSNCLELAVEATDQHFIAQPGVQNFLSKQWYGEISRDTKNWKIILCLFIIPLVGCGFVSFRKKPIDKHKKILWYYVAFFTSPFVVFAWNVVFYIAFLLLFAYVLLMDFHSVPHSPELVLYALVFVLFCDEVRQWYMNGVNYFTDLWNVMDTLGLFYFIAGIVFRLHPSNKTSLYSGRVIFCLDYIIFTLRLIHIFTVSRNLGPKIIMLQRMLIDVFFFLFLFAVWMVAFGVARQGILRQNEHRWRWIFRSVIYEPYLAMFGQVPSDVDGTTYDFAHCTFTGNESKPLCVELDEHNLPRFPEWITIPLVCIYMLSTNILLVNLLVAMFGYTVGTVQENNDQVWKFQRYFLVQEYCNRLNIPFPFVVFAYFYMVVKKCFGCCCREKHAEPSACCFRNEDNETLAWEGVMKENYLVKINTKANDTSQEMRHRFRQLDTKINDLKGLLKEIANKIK
Experimental: For patch clamp experiments, HEK293 cells stably transfected with canine TRPM8 were cultured in DMEM supplemented with 10% fetal bovine serum, 100 units/ml penicillin, 100 μg/ml streptomycin and 1 mg/ml G418. Cells were maintained at 37° C. and in 5% CO2.
The extracellular solution contained (in mM): NaCl, 132; EGTA, 1; KCl, 5.4; MgCl2, 0.8; HEPES, 10; glucose, 10; pH=7.4. Recordings were performed using the conventional whole-cell patch clamp technique, 1-2 days after plating cells onto glass coverslips at densities appropriate for single cell recording. Currents were amplified by a patch clamp amplifier and filtered at 2 kHz (Axopatch 200B, Molecular Devices, Union City, Calif.). Menthol (100 μM) was applied to the cell at 0.5 ml/min via a gravity-fed perfusion system. Recordings involving menthol activation were performed at 22° C.
In experiments where temperatures were varied, temperature ramps were generated by cooling the perfusate in an in-line cooler (Model SC-20, Warner Instruments, Hamden, Conn.) controlled by a temperature controller (Model CL-100, Warner Instruments). The temperature in the vicinity of the recorded cell was measured with a custom-made miniature thermo-microprobe connected to a monitoring thermometer (Model TH-8, Physitemp, Clifton, N.J.), and sampled using Digidata 1322A and pClamp 9.0 (Molecular Devices), as were the currents concurrently measured in the whole-cell patch clamp mode. The current was continuously sampled (at 100 Hz) at a holding potential of −60 mV.
Compounds were diluted from 10 mM DMSO stocks (stored at −20° C.) into an extracellular solution either containing 100 μM menthol or subjecting to cooling. Increasing concentrations of a compound were applied to a cell in a cumulative manner and concentration-dependent responses were measured after steady-state activation was achieved by either 100 μM menthol or cooling to 10° C. A saturating concentration of a reference antagonist was applied at the end of an experiment (either in the presence of 100 μM menthol or 10° C. temperature) to establish the baseline from which all the other measurements were subtracted.
Percentage inhibition by a compound was calculated as follows: 100×(1−Icomp/I0); where Icomp and I0 are steady-state current amplitudes in either the presence or absence of a concentration of the compound.

mice = experiment: CFA-induced paw cold hypersensitivity (acetone-evoked paw licking); format: in vivo; details: mouse; 60 mg/kg p.o.; time 30′; acetone licking duration vs vehicle
Experimental: Prior to intraplantar CFA injection mice were placed individually in elevated observation chambers having wire mesh floors. Through the mesh floor a series of three applications of acetone (0.04 mL/application) was sprayed onto the bottom of the paw using a multidose syringe device. A positive response took the form of an abrupt withdrawal and licking of the paw. The cumulative duration of licking was recorded for each of the three trials which were then averaged to give the individual's response. Twenty-four hours following CFA injection acetone licking durations were markedly elevated implying a hypersensitivity to cooling. A test compound of Formula (I) was assessed for its ability to return acetone-evoked paw licking durations to pre-CFA levels (typically near zero) following systemic administration. Percent inhibition was calculated % inhibition=[1−(treatment licking duration/vehicle licking duration)]×100.

[1] = IC50, mode of activation Menthol (100 μM), HEK293 cells stably transfected with canine TRPM8, 100 μM menthol, 22° C.

CC(C)OP(=O)(OC(C)C)[C@@H](Cc1ccc(F)c(F)c1)c1sc2ccccc2c1Br [Cpd 234, (S)-[1-(3-Bromo-benzo[b]thiophen-2-yl)-2-(3,4-difluoro-phenyl)-ethyl]-phosphonic acid diisopropyl ester]
ED50 (Male Sprague Dawley rats; po): 24.3 mg/kg | % Inhibition (Male Sprague Dawley rats; 10 mg/kg p.o.): 14.2% | % Inhibition (Male Sprague Dawley rats; 30 mg/kg p.o.): 68.0% | % Inhibition (Male Sprague Dawley rats; 100 mg/kg p.o.): 92.9% | ED50 (rats; po): 28.5 mg/kg | % Inhibition (rats; 10 mg/kg p.o.): 24.4% | % Inhibition (rats; 30 mg/kg p.o.): 56.1% | % Inhibition (rats; 100 mg/kg p.o.): 75.1% | inhibition in vivo at 30 mg/kg (Sprague-Dawley rats; time 1 h): 75% | inhibition in vivo at 30 mg/kg (Sprague-Dawley rats; time 2 h (printed 2 h or 2)): 56% | ED50 (Sprague-Dawley rats; p.o., read-out: ED50): 6.6 mg/kg | IC50 (canine TRPM8; IC50, mode of activation Cold (10° C.), HEK293 cells stably transfected with canine TRPM8, cooling to 10° C.): 1.6 nM | IC50 (canine TRPM8; [1]): 4.7 nM

CC(C)OP(=O)(OC(C)C)[C@@H](Cc1ccc(F)c(C(F)(F)F)c1)c1sc2ccccc2c1Br [Cpd 242, (S)-[1-(3-Bromo-benzo[b]thiophen-2-yl)-2-(4-fluoro-3-trifluoromethyl-phenyl)-ethyl]-phosphonic acid diisopropyl ester]
% Inhibition (rats; 30 mg/kg p.o.): 79.9% | % I (mice): 84% | IC50 (canine TRPM8; [1]): 0.4 nM
